Measurements: patent publication US20160251402A1, “MICROPEPTIDES AND USE OF SAME FOR MODULATING GENE EXPRESSION” (UNIVERSITE PAUL SABATIER TOULOUSE III, priority 2013, published 2016)
Entries after “also recorded” stand apart in the source; their conditions may differ.

Columns and labels:
[1] = tested on: HAM1 (accession No. MtGI9-TC114268); test: Expression of the HAM1 gene in M. truncatula (qRT-PCR); assay type: in vivo, Medicago truncatula
Method: (§1) The surface of seeds of M truncatula was sterilized and they were left to germinate on agar plates for 5 days at 4° C. in the dark. The young shoots were then grown on 12-cm square plates filled with Fahraeus medium without nitrogen and containing 7.5 μM phosphate (Lauressergues et al., Plant J., 72(3): 512-22, 2012). The lateral roots were counted every day. In pots, the plants were watered every other day with modified Long Ashton medium with low phosphorus content (Balzergue et al., Journal of Experimental Botany, (62)1049-1060, 2011).
(§2) The peptides were synthesized by Eurogentec or Smartox-Biotech. MtmiPEP171b1 was resuspended in a solution of 40% water/50% acetonitrile/10% acetic acid (v/v/v), and the other peptides were resuspended in water.
(§3) The total RNA was extracted from roots of M. truncatula or from tobacco leaves using the extraction kit RNeasy Plant Mini Kit (Qiagen). […]
(§4) The mean values of the relative expression of the genes or of the production of lateral roots were analysed using the Student test or the Kruskal-Wallis test. […]
(§5) The composite plants having roots transformed with Agrobacterium rhizogenes were obtained by the method described in Boisson-Dernier et al. (Mol Plant-Microbe Interact, 18: 1269-1276, 2005). The transformed roots were verified and selected by observations of DsRED with a binocular fluorescence magnifier. […]

[2] = tested on: pre-MtmiR171b, pre-MtmiR169, pre-MtmiR169a, pre-MtmiR171a, pre-MtmiR171h, pre-MtmiR393a, pre-MtmiR393b, pre-MtmiR396a, pre-MtmiR396b; test: Specificity: expression of different precursors of microRNAs in M. truncatula; assay type: in vivo, Medicago truncatula; details: plants overexpressing MtmiPEP171b1 or treated with MtmiPEP171b1 (0.1 μM)
Method: The expression of different microRNA precursors of Medicago truncatula (MtmiR171b SEQ ID NO: 319, MtmiR169 SEQ ID NO: 367, MtmiR169a SEQ ID NO: 368, MtmiR171a SEQ ID NO: 369, MtmiR171h SEQ ID NO: 370, MtmiR393a SEQ ID NO: 371, MtmiR393b SEQ ID NO: 372, MtmiR396a SEQ ID NO: 373 and MtmiR396b SEQ ID NO: 374) was determined and compared between control plants and plants in which MtmiORF171b encoding MtmiPEP171b1 was overexpressed (FIG. 5A), or between control plants and plants grown on culture medium containing MtmiPEP171b1 (FIG. 5B).
(§6) The total RNA was extracted from roots of M. truncatula or from tobacco leaves using the extraction kit RNeasy Plant Mini Kit (Qiagen). The reverse transcription was performed using the reverse transcriptase SuperScript II (Invitrogen) starting from 500 ng of total RNA. Three repetitions (n=3) were carried out, each with two technical repetitions. Each experiment was repeated from two to three times. The amplifications by qPCR were carried out using a LightCycler 480 System thermocycler (Roche Diagnostics) by the method described in Lauressergues et al. (Plant J., 72(3): 512-22, 2012).

[3] = tested on: Medicago truncatula lateral roots; test: Number of lateral roots in M. truncatula; assay type: in vivo
Method: as §1, with “2011). The mean values of the relative expression of the genes or of the production of lateral roots were analysed using the Student test or the Kruskal-Wallis test. The error bars represent the SEM (Standard Error of the Mean). The asterisks indicate a significant difference (p<0.05).” for “2011).”

[4] = tested on: MtmiR171b; test: Accumulation of pri-/pre-/mature MtmiR171b in transformed tobacco leaves; assay type: in vivo, Nicotiana benthamiana
Method: In order to determine whether the mechanism of regulation of the microRNAs is conserved in other plant species, the regulation of MtmiR171b by MtmiPEP171b1 was tested in a different cellular model. For this, MtmiR171b and MtmiPEP171b1 were introduced into tobacco leaves.
The accumulation of MtmiR171b was measured in tobacco leaves transformed in order to express MtmiR171b of Medicago truncatula starting from wild-type pri-miRNA capable of producing MtmiPEP171b1, or starting from a mutated version of pri-miRNA incapable of producing MtmiPEP171b1 (in which the start codon ATG of MtmiORF171b has been replaced with ATT) (FIG. 6 and FIG. 20).
The accumulation of pre-MtmiR171b was measured in tobacco leaves transformed in order to express MtmiR171b of Medicago truncatula alone (control), or additionally expressing the wild-type MtmiORF171b of Medicago truncatula (35SmiPEP171b1 ATG), or a mutated version of MtmiORF171b in which the start codon ATG has been replaced with ATT (35SmiPEP171b1 ATT) (FIG. 7 and FIG. 21).
The leaves were watered by spraying with the peptides using peptide solutions at different concentrations (0.01, 0.1, 1 μM), firstly 12 h before sampling and then a second time 30 min before sampling.
as §6
The DNA fragments of interest were amplified with Pfu polymerase (Promega). The DNA fragments were cloned using the XhoI and NotI enzymes into a pPEX-DsRED plasmid for an overexpression under the control of the constitutive strong promoter 35S, and using the KpnI-NcoI enzymes into a pPEX GUS plasmid for the reporter genes, by the method described in Combier et al. (Genes & Dev, 22: 1549-1559, 2008).
The composite plants having roots transformed with Agrobacterium rhizogenes were obtained by the method described in Boisson-Dernier et al. (Mol Plant-Microbe Interact, 18: 1269-1276, 2005). The transformed roots were verified and selected by observations of DsRED with a binocular fluorescence magnifier. The control roots correspond to roots transformed with A. rhizogenes not containing the pPEX-DsRED vector. Transformation of the tobacco leaves was carried out by the method described in Combier et al. (Genes & Dev, 22: 1549-1559, 2008).

[5] = tested on: HAM2 (accession No. MtGI9-TC120850); test: Expression of the HAM2 gene in M. truncatula (qRT-PCR); assay type: in vivo, Medicago truncatula
Method: as §1, §2, §3, §4, §5

[6] = plant in which MtmiPEP171b1 is overexpressed vs control plant
[7] = watering once daily for 5 days with peptide at 0.01, 0.1 or 1 μM vs control plant

What does the source list for “MLLHRLSKFCKIERDIVYIS (listed as Medicago truncatula) [MtmiPEP171b1]”?
relative expression of HAM1 [1, 6]: decrease in the expression of the HAM1 and HAM2 genes; relative expression of HAM1 [1, 7]: decrease in the expression of the HAM1 and HAM2 genes; ratio of the expression of the precursors of microRNAs to control roots (specificity) [2]: only leads to an effect on the accumulation of MtmiR171b and not on the other miRNAs; also recorded: only leads to an increase in the accumulation of MtmiR171b and not of the other miRNAs; mean number of lateral roots [3, 6]: reduction in the number of lateral roots; mean number of lateral roots ([3]; watering with peptide at 0.1 μM once daily for 5 days vs control plant): reduction in the number of lateral roots; relative expression of MtmiR171b ([4]; tobacco co-transformed with empty vector, miPEP vector, ATT-mutated ORF or degenerate ORF): increases the expression of MtmiR171b; relative expression of pre-MtmiR171b ([4]; tobacco expressing MtmiR171b alone vs MtmiR171b and MtmiPEP171b1 (or ATT-mutated miORF)): increases the expression of MtmiR171b; relative expression of pre-MtmiR171b ([4]; tobacco expressing MtmiR171b and MtmiPEP171b1 with or without protein tags (His, HA or GFP)): increases the expression of MtmiR171b, and this effect is independent of the presence of tags; relative expression of MtmiR171b ([4]; tobacco expressing MtmiR171b, peptide 0.1 μM sprayed twice, 12 h and 30 min before sampling): increase in the accumulation of MtmiR171b; relative expression of MtmiR171b ([4]; tobacco expressing MtmiR171b, peptide 0.1 μM sprayed twice, 12 h and 30 min before sampling, listed as miPEP171b1): increases the accumulation; relative expression of pre-MtmiR171b ([4]; tobacco expressing MtmiR171b, treated with 0.1 μM of peptide): increase in the accumulation; relative expression of pre-MtmiR171b ([4]; tobacco expressing MtmiR171b, treated with 0.1 μM of peptide, listed as miPEP171b1): increases the accumulation; relative expression of MtmiR171b ([4]; tobacco expressing pri-MtmiR171b vs mutated pri-MtmiR171b (ATG replaced with ATT, no translation of the miPEP)): marked decrease in the accumulation of miR171b; also recorded: marked decrease in the accumulation of MtmiR171b; relative expression of MtmiR171b ([4]; tobacco expressing pri-MtmiR171b vs mutated pri-MtmiR171b (ATG replaced with ATT, no translation of the miPEP), listed as miPEP171b1): marked decrease in the accumulation of miR171b; relative expression of HAM2 [5, 6]: decrease in the expression of the HAM1 and HAM2 genes; relative expression of HAM2 [5, 7]: decrease in the expression of the HAM1 and HAM2 genes
